From article PMC9469500, “Targeting an Initiator Allergen Provides Durable and Expansive Protection against House Dust Mite Allergy” (ACS Pharmacology & Translational Science, 2022)

Assays:
unsensitized BN rats = experiment: HDM extract challenge in unsensitized (naive) BN rats, duration of protection; assay type: in vivo; conditions: for performance in vivo (maximum inhibition of the eosinophil response, Figure 5A): focused library, durability of inhibition studies
Der p 1 = target: T1, Der p 1 (Dermatophagoides pteronyssinus, UniProt P08176); assay type: biochemical; conditions: Figure 5A, in words
T1 construct: from tissue; host or cells: spent culture medium of Dermatophagoides pteronyssinus (native HDM extract); ammonium sulfate precipitation, size exclusion, SBTI column, Resource Q
T1 sequence (P08176 99-320): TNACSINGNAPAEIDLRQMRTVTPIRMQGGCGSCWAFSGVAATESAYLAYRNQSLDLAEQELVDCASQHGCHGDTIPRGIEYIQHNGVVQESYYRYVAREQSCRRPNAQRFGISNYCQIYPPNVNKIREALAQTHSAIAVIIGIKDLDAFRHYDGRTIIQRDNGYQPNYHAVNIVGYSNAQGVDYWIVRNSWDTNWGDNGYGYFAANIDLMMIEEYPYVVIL
Protocol: Assays were assembled in 96-well plate format using a PerkinElmer Multiprobe II Plus HTS EX robot (PerkinElmer, UK). […] Reactions were initiated by the addition of 10 μL Der p 1 dissolved in the reaction buffer at 2.5 μg/mL and followed at 30 °C by measurement of fluorescence (excitation/emission 330/420 nm) using either a Fusion Alpha-FP or Envision plate reader fitted with a temperature-controlled carrier (PerkinElmer, UK).
Inhibitor kinetics were analyzed from progress curves. For reversible inhibitors, IC50 values were calculated conventionally.

[1] = all other time points than those stated not significant, 50:1 molar equivalents
[2] = time points other than the stated exceptions, 50:1 molar equivalents i.t. aerosol
[3] = all time points, naive BN rats, HDM extract 10 µg Der p 1, single i.t. aerosol dose 50:1 molar equivalents
[4] = all time points, naive BN rats, HDM extract 10 µg Der p 1, single i.t. aerosol dose 50:1 molar equivalents to Der p 1

Row | Molecule | performance in vivo (maximum inhibition of the eosinophil response, Figure 5A) (unsensitized BN rats) | BAL neutrophil response: significance of effect (P<0.05) (unsensitized BN rats; pre-treatment at 60 min) | Reduction in BAL eosinophil response: significance of inhibition (P<0.05) (unsensitized BN rats; [2]) | potency against the target molecule in vitro (Der p 1) | BAL neutrophil response: significance of effect (P<0.05) (unsensitized BN rats; [3]) | Reduction in BAL eosinophil response: significance of inhibition (P<0.05) (unsensitized BN rats; [4]) | also measured
1 | 3-((3S,6S,9S)-3-benzyl-9-isopropyl-6-methyl-1,4,7,10,11-pentaoxo-1-phenyl-2,5,8,12-tetraazatridecan-13-yl)benzoic acid [Compound 7] | effective | not significant | significant | less potent than others | – | – | BAL neutrophil response: significance of effect (P<0.05) (unsensitized BN rats; [1]): significant; BAL neutrophil response: significance of effect (P<0.05) (unsensitized BN rats; pre-treatment at 120 min): not significant; BAL neutrophil response: significance of effect (P<0.05) (unsensitized BN rats; pre-treatment at 360 min): not significant
2 | CC(C)[C@H](NC(=O)[C@H](C)NC(=O)[C@@H](NC(=O)c1ccccc1)C(C)(C)C)C(=O)C(=O)NCC(=O)N1CCc2ccccc2C1 [Compound 3, N-[(S)-1-((S)-1-{(S)-1-[2-(3,4-dihydro-1H-isoquinolin-2-yl)-2-oxo-ethylaminooxalyl]-2-methyl-propylcarbamoyl}-ethylcarbamoyl)-2,2-dimethyl-propyl]-benzamide] | – | – | – | – | significant | significant | –
3 | CC(C)[C@H](NC(=O)[C@H](C)NC(=O)[C@H](Cc1ccccc1)NC(=O)c1ccccc1)C(=O)C(=O)NCC(=O)N1CC[N+](C)(C)CC1.O=C[O-] [Compound 4, 4-(2-{(S)-3-[(S)-2-((S)-2-benzoylamino-3-phenyl-propionylamino)-propionylamino]-4-methyl-2-oxo-pentanoylamino}-acetyl)-1,1-dimethyl-piperazin-1-ium formate] | effective | – | – | less potent than others | significant | significant | –
4 | CC(C)[C@H](NC(=O)[C@H](C)NC(=O)[C@@H](NC(=O)c1ccnc2ccccc12)C(C)(C)C)C(=O)C(=O)NCc1ccccc1 [Compound 5, quinoline-4-carboxylic acid {(S)-1-[(S)-1-((S)-1-benzylaminooxalyl-2-methyl-propylcarbamoyl)-ethylcarbamoyl]-2,2-dimethyl-propyl}-amide] | effective | – | – | less potent than others | significant | significant | onset: temporal separation between drug dosing and HDM challenge required to achieve 50% inhibition of the eosinophil response (unsensitized BN rats; estimated, Figure 5D–F, in words): slower onset
5 | CC(C)[C@H](NC(=O)[C@H](C)NC(=O)[C@H](Cc1ccccc1)NC(=O)c1cccc2ccccc12)C(=O)C(=O)NCC(=O)N1CCN(C)CC1 [Compound 8, N-((S)-1-(((S)-1-(((S)-4-methyl-1-((2-(4-methylpiperazin-1-yl)-2-oxoethyl)amino)-1,2-dioxopentan-3-yl)amino)-1-oxopropan-2-yl)amino)-1-oxo-3-phenylpropan-2-yl)-1-naphthamide] | effective | not significant | – | less potent than others | – | significant | BAL neutrophil response: significance of effect (P<0.05) (unsensitized BN rats; [1]): significant
6 | CNC(=O)c1ccc(CNC(=O)C(=O)[C@@H](NC(=O)[C@H](C)NC(=O)[C@@H](N2Cc3ccccc3C2=O)C(C)(C)C)C(C)C)cc1 [Compound 9, 4-[((S)-3-{(S)-2-[(S)-3,3-dimethyl-2-(1-oxo-1,3-dihydro-isoindol-2-yl)-butyrylamino]-propionylamino}-4-methyl-2-oxo-pentanoylamino)-methyl]-N-methyl-benzamide] | – | – | significant | – | not significant | – | –
7 | CC(C)[C@H](NC(=O)[C@H](C)NC(=O)[C@@H](NC(=O)c1ccnc2ccccc12)C(C)(C)C)C(=O)C(=O)NCC(=O)N1CCN(C(C)C)CC1 [Compound 10, quinoline-4-carboxylic acid [(S)-1-((S)-1-{(S)-1-[2-(4-isopropyl-piperazin-1-yl)-2-oxo-ethylaminooxalyl]-2-methyl-propylcarbamoyl}-ethylcarbamoyl)-2,2-dimethyl-propyl]-amide] | performed less satisfactorily | – | significant | potent | not significant | – | –
8 | CC(C)[C@H](NC(=O)[C@H](C)NC(=O)[C@H](Cc1ccccc1)NC(=O)c1ccncc1)C(=O)C(=O)NCc1ccccc1 [Compound 11, N-((S)-1-(((S)-1-(((S)-1-(benzylamino)-4-methyl-1,2-dioxopentan-3-yl)amino)-1-oxopropan-2-yl)amino)-1-oxo-3-phenylpropan-2-yl)isonicotinamide] | effective | – | – | less potent than others | not significant | significant | –
9 | CC(C)[C@H](NC(=O)[C@H](C)NC(=O)[C@@H](NC(=O)c1ccncc1)C(C)(C)C)C(=O)C(=O)NC1CCCCC1 [Compound 12, N-{(S)-1-[(S)-1-((S)-1-cyclohexylaminooxalyl-2-methyl-propylcarbamoyl)-ethylcarbamoyl]-2,2-dimethyl-propyl}-isonicotinamide] | – | – | – | – | – | significant | –
10 | CC(C)[C@H](NC(=O)[C@H](C)NC(=O)[C@H](Cc1ccccc1)NC(=O)c1ccccc1)C(=O)C(=O)NCC(=O)N1CCOCC1 [Compound 13, N-((S)-1-{(S)-1-[(S)-2-methyl-1-(2-morpholin-4-yl-2-oxo-ethylaminooxalyl)-propylcarbamoyl]-ethylcarbamoyl}-2-phenyl-ethyl)-benzamide] | – | not significant | – | – | – | significant | BAL neutrophil response: significance of effect (P<0.05) (unsensitized BN rats; pre-treatment at 240 min): not significant
11 | CC(C)[C@H](NC(=O)[C@H](C)NC(=O)[C@@H](NC(=O)c1ccccc1C(=O)O)C(C)(C)C)C(=O)C(=O)NCC(=O)N1CCN(C)CC1 [Compound 14, 2-(((S)-3,3-dimethyl-1-(((S)-1-(((S)-4-methyl-1-((2-(4-methylpiperazin-1-yl)-2-oxoethyl)amino)-1,2-dioxopentan-3-yl)amino)-1-oxopropan-2-yl)amino)-1-oxobutan-2-yl)carbamoyl)benzoic acid] | – | – | – | – | significant | significant | –
12 | CC(C)[C@H](NC(=O)[C@H](C)NC(=O)[C@@H](NC(=O)c1ccccc1)C12CC3CC(CC(C3)C1)C2)C(=O)C(=O)NCC(=O)N1CCN(C)CC1 [Compound 15, N-[(S)-adamantan-1-yl-((S)-1-{(S)-2-methyl-1-[2-(4-methyl-piperazin-1-yl)-2-oxo-ethylaminooxalyl]-propylcarbamoyl}-ethylcarbamoyl)-methyl]-benzamide] | useful in vivo activity | – | – | – | significant | significant | –
13 | N-((S)-1-(((S)-1-(((S)-1-(cyclohexylamino)-4-methyl-1,2-dioxopentan-3-yl)amino)-1-oxopropan-2-yl)amino)-3,3-dimethyl-1-oxobutan-2-yl)isoquinoline-4-carboxamide [Compound 6] | – | not significant | significant | – | – | – | BAL neutrophil response: significance of effect (P<0.05) (unsensitized BN rats; [1]): significant; BAL neutrophil response: significance of effect (P<0.05) (unsensitized BN rats; pre-treatment at 120 min): not significant
